This passage reports IC50 results from patent US20180353462A1, “[…] AGENTS […] FLAVONOID DERIVATIVES TARGETING KINASES, SIRTUINS AND ONCOGENIC AGENTS FOR THE TREATMENT OF CANCERS” (priority 2015, published 2018).

In one assay the target is T1, FGR (Homo sapiens, UniProt P09769).
T1 construct: made in house
In words: Kinase competition binding assay, FGR. As to conditions: Table 1 kinase panel. As to the method:
(§1) Cannabis flavonoids and their analogs were subjected to kinase inhibition assay. The compounds were first screened at a single concentration of 10 μM in the primary assay. […]. To determine the kd or IC50 values, competition binding assays were established, authenticated and executed as described previously. Fabian et al., “A Small Molecule-Kinase Interaction Map For Clinical Kinase Inhibitors.”, Nat Biotechnol, 23(3):329-36, Epub (2005). See also, Karaman et al., “A Quantitative Analysis Of Kinase Inhibitor Selectivity”, Nat. Biotechnol. […] For most assays, kinases were fused to T7 phage strains (Fabian, supra) and for the other assays, kinases were produced in HEK-293 cells after which they were tagged with DNA for quantitative PCR detection. In general, full-length constructs were used for small, single domain kinases, and catalytic domain constructs for large multi-domain kinases. The binding assays utilized streptavidin-coated magnetic beads treated with biotinylated small molecule ligands for 30 minutes at room temperature which generated affinity resins for the kinase assays. The liganded beads were blocked with excess biotin and washed with blocking buffer (SeaBlock (Pierce), 1% BSA, 0.05% Tween 20, 1 mM DTT) to remove unbound ligand and to reduce non-specific phage binding. […] Test compounds were prepared as 40× stocks in 100% DMSO and diluted directly into the assay (Final DMSO concentration=2.5%). All reactions were performed in polypropylene 384-well plates in a final volume of 0.04 ml. […] The beads were then re-suspended in elution buffer (1×PBS, 0.05% Tween 20, 0.5 μM non-biotinylated affinity ligand) and incubated at room temperature with shaking for 30 minutes. The kinase concentration in the eluates was measured by quantitative PCR. An illustration of the kinase interaction process is presented below. Kd/IC50 values were determined using a standard dose response curve using the hill equation. Curves were fitted using a non-linear least square fit with the Levenberg-Marquardt algorithm.
(§2) The compound(s) were screened at 10 μM and results for primary screen binding interactions are reported as ‘% Ctrl’, where lower numbers indicate stronger hits in the matrix.

The target in the next assay is T2, MELK (Homo sapiens, UniProt Q14680).
T2 construct: made in house
T2 sequence (Q14680 whole entry): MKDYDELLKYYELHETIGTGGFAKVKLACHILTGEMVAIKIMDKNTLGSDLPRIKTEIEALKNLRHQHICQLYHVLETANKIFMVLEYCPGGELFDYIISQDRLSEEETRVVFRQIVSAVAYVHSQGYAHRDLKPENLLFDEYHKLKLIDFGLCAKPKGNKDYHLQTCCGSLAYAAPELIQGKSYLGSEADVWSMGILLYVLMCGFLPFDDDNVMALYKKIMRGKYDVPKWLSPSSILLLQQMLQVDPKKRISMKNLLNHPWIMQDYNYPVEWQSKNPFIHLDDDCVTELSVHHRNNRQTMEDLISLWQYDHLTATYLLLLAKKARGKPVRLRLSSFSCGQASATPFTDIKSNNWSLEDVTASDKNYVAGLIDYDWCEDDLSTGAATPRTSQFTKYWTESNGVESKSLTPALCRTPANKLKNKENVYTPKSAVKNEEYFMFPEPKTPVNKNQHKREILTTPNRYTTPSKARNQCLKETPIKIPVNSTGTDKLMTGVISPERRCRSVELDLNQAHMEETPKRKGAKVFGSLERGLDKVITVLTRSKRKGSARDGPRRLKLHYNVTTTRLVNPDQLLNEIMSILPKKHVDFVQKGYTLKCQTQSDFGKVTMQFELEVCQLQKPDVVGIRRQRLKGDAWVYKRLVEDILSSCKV
Put plainly: Kinase competition binding assay, MELK. As to conditions: Table 1 kinase panel. As to the method: as §1, §2

The next assay has as its target T3, DYRK1B (Homo sapiens, UniProt Q9Y463).
T3 construct: made in house
Put plainly: Kinase competition binding assay, DYRK1B. Particulars: Table 1 kinase panel. How it is done: as §1, §2

The next assay deals with T4, PDGFRa(T674I) (Homo sapiens, UniProt P16234, T674I).
T4 construct: catalytic domain constructs for large multi-domain kinases; T7 phage fusion (most assays) or DNA tag for qPCR (HEK-293-made kinases); made in house
T4 sequence (P16234 593-954 T674I limits assumed): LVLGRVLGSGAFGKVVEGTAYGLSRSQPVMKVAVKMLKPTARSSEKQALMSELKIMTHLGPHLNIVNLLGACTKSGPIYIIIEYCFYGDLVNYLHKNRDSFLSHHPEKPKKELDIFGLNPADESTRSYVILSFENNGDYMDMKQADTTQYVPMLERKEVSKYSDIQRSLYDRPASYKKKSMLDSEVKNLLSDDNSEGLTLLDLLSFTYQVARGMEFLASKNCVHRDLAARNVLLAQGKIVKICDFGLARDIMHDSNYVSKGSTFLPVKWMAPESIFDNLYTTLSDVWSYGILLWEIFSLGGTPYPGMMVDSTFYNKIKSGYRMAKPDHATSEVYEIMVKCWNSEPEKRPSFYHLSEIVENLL
Put plainly: Kinase competition binding assay, PDGFRa(T674I). Particulars: Table 1 kinase panel. How it is done: as §1, §2

The target in another assay is T5, c-Kit(D820Y) (Homo sapiens, UniProt P10721, D820Y).
T5 construct: made in house
T5 sequence (P10721 26-976 D820Y): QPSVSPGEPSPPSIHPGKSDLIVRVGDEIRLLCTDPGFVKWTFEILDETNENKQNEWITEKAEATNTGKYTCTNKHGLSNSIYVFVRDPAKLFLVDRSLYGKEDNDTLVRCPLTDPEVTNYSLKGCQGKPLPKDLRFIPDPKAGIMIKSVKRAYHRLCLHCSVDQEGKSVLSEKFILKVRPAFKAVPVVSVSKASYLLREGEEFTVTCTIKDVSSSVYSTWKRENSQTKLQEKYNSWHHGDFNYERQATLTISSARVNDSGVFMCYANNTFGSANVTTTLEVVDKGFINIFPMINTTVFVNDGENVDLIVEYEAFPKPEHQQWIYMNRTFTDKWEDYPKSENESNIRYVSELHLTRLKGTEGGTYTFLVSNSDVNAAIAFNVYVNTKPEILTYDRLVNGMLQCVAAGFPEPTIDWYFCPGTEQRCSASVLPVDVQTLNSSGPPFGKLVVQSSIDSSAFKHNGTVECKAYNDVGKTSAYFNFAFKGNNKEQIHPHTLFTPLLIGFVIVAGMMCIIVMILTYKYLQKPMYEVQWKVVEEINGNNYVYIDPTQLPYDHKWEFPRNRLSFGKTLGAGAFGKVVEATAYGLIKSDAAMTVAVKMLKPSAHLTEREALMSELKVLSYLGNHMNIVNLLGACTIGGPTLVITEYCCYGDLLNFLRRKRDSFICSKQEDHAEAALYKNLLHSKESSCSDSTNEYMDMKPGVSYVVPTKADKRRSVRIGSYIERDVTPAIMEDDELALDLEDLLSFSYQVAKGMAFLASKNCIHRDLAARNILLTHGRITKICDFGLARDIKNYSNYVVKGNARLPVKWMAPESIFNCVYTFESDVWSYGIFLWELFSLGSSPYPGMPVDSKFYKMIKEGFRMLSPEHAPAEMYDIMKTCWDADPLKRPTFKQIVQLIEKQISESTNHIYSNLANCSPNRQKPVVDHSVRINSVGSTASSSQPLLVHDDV
Put plainly: Kinase competition binding assay, c-Kit(D820Y). As to conditions: Table 1 kinase panel. As to the method:
as §1, §2

The test system of another assay is NCI-H69 (Small lung). In words: WST-1 anticancer cell proliferation assay, NCI-H69. In kind it is cell-based. As to conditions: 72 hours. How it is done:
Bioactivity of the above-described compounds has been verified by an anticancer cell proliferation assay using the WST-1 (4-[3-(4-iodophenyl)-2-(4-nitrophenyl)-2H-5-tetrazolio]-1, 3-benzene disulfonate) colorimetric assay by Roche Life Sciences®. Anticancer activity was tested against several standard cancer cell lines including brain, breast, Kaposi sarcoma, leukemia, lung, melanoma, tenosynovial giant cell tumor, ovarian, pancreatic, colon and prostate cancer. Cells were trypsinized and plated into 96 well plates in 50 μl of media and incubated overnight. The next day approximately 18 hours after plating, 50 μl of media containing the required flavonoid-based pharmaceutical composition was added per well. Cells were plated at a density so that 72 hours post drug addition, the cells will be in log phase (500)-2000 cells/well). The compounds and extracts were solubilized in Dimethyl sulfoxide (DMSO). The cells are allowed to proliferate for 72 hours 37° C. in humidified atmosphere of 5% CO2. The experiment is terminated using WST-1 (Roche®) 10 μl per well and absorbance is read at 450 nm %690 nm. The effect of drugs on growth is assessed as percent of cell viability. The IC50 values were determined from the extract dose versus control growth curves using Graphpad Prism® software. All experiments were carried out in duplicate and the mean results determined.

A further assay addresses T6, CK2a (Homo sapiens, UniProt P68400).
T6 construct: made in house
In words: Kinase competition binding assay, CK2a. As to conditions: Table 1 kinase panel. How it is done:
as §1, §2

The next assay addresses T7, SIRT-3 (Homo sapiens, UniProt Q9NTG7).
T7 sequence (Q9NTG7 1-399): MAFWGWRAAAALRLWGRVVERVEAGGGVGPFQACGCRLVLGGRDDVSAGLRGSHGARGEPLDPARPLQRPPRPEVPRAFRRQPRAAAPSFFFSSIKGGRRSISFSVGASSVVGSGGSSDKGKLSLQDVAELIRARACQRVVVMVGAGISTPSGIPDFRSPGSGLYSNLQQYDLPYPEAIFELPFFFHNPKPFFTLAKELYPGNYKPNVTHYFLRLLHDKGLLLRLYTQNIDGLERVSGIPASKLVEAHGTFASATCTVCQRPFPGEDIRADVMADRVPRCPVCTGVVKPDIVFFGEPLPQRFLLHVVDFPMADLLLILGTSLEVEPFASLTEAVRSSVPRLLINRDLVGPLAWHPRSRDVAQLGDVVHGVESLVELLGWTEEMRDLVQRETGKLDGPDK
Put plainly: Inhibition of sirtuins, SIRT-3. Particulars: Table 3 SIRT. In kind it is biochemical. The source says: Inhibition of Sirtuins, Matrix Metalloproteinase, Bromodomains was Also Confirmed Using Standard Protocols and the Results are Present in Table 2.

Another assay addresses T8, PDGFRa (Homo sapiens, UniProt P16234).
T8 construct: catalytic domain constructs for large multi-domain kinases; T7 phage fusion (most assays) or DNA tag for qPCR (HEK-293-made kinases); made in house
In words: Kinase competition binding assay, PDGFRa. As to conditions: Table 1 kinase panel. As to the method:
Cannabis flavonoids and their analogs were subjected to kinase inhibition assay. The compounds were first screened at a single concentration of 10 μM in the primary assay. […]. To determine the kd or IC50 values, competition binding assays were established, authenticated and executed as described previously. Fabian et al., “A Small Molecule-Kinase Interaction Map For Clinical Kinase Inhibitors.”, Nat Biotechnol, 23(3):329-36, Epub (2005). See also, Karaman et al., “A Quantitative Analysis Of Kinase Inhibitor Selectivity”, Nat. Biotechnol. […] For most assays, kinases were fused to T7 phage strains (Fabian, supra) and for the other assays, kinases were produced in HEK-293 cells after which they were tagged with DNA for quantitative PCR detection. In general, full-length constructs were used for small, single domain kinases, and catalytic domain constructs for large multi-domain kinases. The binding assays utilized streptavidin-coated magnetic beads treated with biotinylated small molecule ligands for 30 minutes at room temperature which generated affinity resins for the kinase assays. The liganded beads were blocked with excess biotin and washed with blocking buffer (SeaBlock (Pierce), 1% BSA, 0.05% Tween 20, 1 mM DTT) to remove unbound ligand and to reduce non-specific phage binding. […] Test compounds were prepared as 40× stocks in 100% DMSO and diluted directly into the assay (Final DMSO concentration=2.5%). All reactions were performed in polypropylene 384-well plates in a final volume of 0.04 ml. […] The beads were then re-suspended in elution buffer (1×PBS, 0.05% Tween 20, 0.5 μM non-biotinylated affinity ligand) and incubated at room temperature with shaking for 30 minutes. The kinase concentration in the eluates was measured by quantitative PCR. An illustration of the kinase interaction process is presented below. Kd/IC50 values were determined using a standard dose response curve using the hill equation. Curves were fitted using a non-linear least square fit with the Levenberg-Marquardt algorithm. […]

T8 sequence (P16234 593-954 limits assumed): as the sequence (P16234 593-954 T674I limits assumed) above, with I82T counted along it
T3 sequence (Q9Y463 whole entry): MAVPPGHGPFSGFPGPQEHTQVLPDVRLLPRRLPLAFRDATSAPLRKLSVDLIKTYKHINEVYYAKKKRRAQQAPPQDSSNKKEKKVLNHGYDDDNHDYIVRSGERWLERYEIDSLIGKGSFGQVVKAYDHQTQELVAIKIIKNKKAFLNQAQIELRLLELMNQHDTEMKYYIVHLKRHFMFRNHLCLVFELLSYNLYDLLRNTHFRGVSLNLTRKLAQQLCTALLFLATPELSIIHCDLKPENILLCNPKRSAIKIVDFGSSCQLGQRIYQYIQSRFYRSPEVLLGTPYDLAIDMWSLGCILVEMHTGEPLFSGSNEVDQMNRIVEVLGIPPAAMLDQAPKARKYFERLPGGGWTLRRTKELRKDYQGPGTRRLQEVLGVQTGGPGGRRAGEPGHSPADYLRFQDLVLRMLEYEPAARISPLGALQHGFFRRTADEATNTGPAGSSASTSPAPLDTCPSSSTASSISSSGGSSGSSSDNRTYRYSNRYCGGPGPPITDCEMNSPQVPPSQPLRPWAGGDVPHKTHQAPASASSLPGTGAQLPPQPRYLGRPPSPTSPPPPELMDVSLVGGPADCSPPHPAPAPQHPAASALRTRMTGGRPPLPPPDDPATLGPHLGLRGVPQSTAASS
T1 sequence (P09769 whole entry): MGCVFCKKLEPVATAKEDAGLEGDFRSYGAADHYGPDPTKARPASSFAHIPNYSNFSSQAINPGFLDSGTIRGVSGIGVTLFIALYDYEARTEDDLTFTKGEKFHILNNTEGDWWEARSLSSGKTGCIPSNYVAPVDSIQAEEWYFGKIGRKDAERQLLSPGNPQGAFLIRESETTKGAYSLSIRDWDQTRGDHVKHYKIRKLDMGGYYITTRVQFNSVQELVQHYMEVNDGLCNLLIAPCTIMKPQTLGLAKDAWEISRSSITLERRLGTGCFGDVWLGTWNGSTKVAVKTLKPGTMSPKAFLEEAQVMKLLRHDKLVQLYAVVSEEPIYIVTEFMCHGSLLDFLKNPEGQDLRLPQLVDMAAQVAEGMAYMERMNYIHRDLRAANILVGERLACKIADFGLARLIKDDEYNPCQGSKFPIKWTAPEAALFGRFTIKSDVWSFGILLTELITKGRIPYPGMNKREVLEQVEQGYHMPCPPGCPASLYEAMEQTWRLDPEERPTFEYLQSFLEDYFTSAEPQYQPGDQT
T6 sequence (P68400 whole entry): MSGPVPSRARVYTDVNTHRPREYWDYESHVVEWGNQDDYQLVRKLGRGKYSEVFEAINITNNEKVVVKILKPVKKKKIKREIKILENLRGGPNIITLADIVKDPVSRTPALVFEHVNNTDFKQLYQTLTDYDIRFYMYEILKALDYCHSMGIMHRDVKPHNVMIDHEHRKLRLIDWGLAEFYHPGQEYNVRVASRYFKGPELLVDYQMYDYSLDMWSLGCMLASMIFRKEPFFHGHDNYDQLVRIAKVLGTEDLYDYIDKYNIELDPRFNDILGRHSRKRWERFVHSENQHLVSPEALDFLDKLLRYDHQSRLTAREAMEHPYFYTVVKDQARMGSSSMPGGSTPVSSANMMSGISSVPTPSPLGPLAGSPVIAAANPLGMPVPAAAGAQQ

Consider `COc1cc(-c2cc(=O)c3c(O)cc(O)c(C/C=C(\C)CCC=C(C)C)c3o2)ccc1O` [FBL-03C], for which the IC50 at FGR is over 20000 nM; at MELK, over 1000 nM; at DYRK1B it was 6400 nM; on PDGFRa(T674I) it was over 1000 nM; at c-Kit(D820Y), over 20000 nM; in the assay on NCI-H69 (Small lung) it was 18 µM. Besides, the IC50 on CK2a was 58 nM; on SIRT-3, 65.4 µM.

For `COc1ccc(-c2cc(=O)c3c(O)c(C/C=C(\C)CCC=C(C)C)c(O)cc3o2)cc1OC` [FBL-03D], the IC50 on FGR, on PDGFRa, on MELK, at DYRK1B, at PDGFRa(T674I) and at c-Kit(D820Y) was over 30000 nM in each case. For the same compound, the IC50 on CK2a is over 30000 nM.

Take `COc1cc(-c2cc(=O)c3c(O)cc(O)c(CC=C(C)C)c3o2)ccc1O` [FBL-03G]: the half-inhibitory concentration (IC50) is 880 nM at FGR; 5920 nM on PDGFRa; 105 nM on MELK; 22.8 nM on DYRK1B; 2360 nM at PDGFRa(T674I); 113 nM at c-Kit(D820Y). The results for the IC50 in the assay on NCI-H69 (Small lung), on CK2a and on SIRT-3 were 9.5 µM, 38 nM and 66.4 µM, respectively.

With `COc1cc(-c2cc(=O)c3c(O)c(C/C=C(\C)CCC=C(C)C)c(O)cc3o2)ccc1O` [FBL-03A], the IC50 at FGR is over 20000 nM; on MELK, over 20000 nM; on DYRK1B, over 20000 nM; on c-Kit(D820Y), over 20000 nM; in the assay on NCI-H69 (Small lung), 16 µM; at CK2a, 740 nM. Half-maximal inhibition on SIRT-3 (IC50) was put at 94.9 µM.

With `COc1cc(-c2cc(=O)c3c(O)c(CC=C(C)C)c(O)cc3o2)ccc1O` [FBL-03B], the IC50 at FGR was found to be 224 nM; on PDGFRa, 982 nM; on MELK, 232 nM; on DYRK1B, 1670 nM; at PDGFRa(T674I), 0.92 nM; on c-Kit(D820Y), 1280 nM. Besides, the IC50 in the assay with NCI-H69 (Small lung) was determined as 11 µM; at CK2a, 768 nM; against SIRT-3, 77 µM.
